What was measured:
tau [1] = assay: Tau phosphorylation in human postmortem frontal cortex slices; assay type: cell-based; conditions: 1 or 10 nM compound
Protocol: As will be seen from examination of FIG. 3 and FIG. 4, the ratio of TLR2 to FLNA increased with administration of each of LTA-SA, PGN-SA and Ab42 at a statistically significant amount relative to the control (p<0.01). Those changes in expression of TLR2 relative to FLNA were each inhibited by the presence of the 1 or 10 nM Compound C0105 at a statistically significant amount relative to the control (p<0.01) and relative to the ligand used. See, FIG. 3B.
A slight inhibition (about 25% or less) of that enhanced tau phosphorylation was provided by contacting the cells with 1 or 10 nM Compound C0105. […] See, FIGS. 4A and 4B.
(§1) The levels of phosphorylated tau (pSer202tau, pThr231tau and pThr181tau) as well as total tau precipitated (loading controls) are assessed by Western blotting using specific antibodies directed against each of the phosphor-epitopes and the anti-tau, respectively.

tau [2] = assay: Tau phosphorylation in Ab42-treated organotypic frontocortical slice cultures; assay type: cell-based; conditions: Ab42-treated rat organotypic frontocortical slice cultures
Protocol: Rat brain slice organotypic culture methods were modified from those published previously. [Adamchik et al., Brain Res Brain Res Protoc 5:153-158 (2000).] FCX slices ([…]) were transferred to sterile, porous Millicell-CM inserts (0.4 mm). Each culture insert unit contained two brain slices and was placed into individual wells of a 12-well culture tray in 2 ml medium: 50% MEM with Earl's salts, 2 mM L-glutamine, 25% Earl's balanced salt solution, 6.5 g/l D-glucose, 20% fetal bovine serum (FBS), 5% horse serum, 25 mM HEPES buffer, pH 7.2, and […] streptomycin and […] penicillin. Cultures were kept in an incubator for 2 days at 36° C. in 5% CO2 to minimize the impact of injury from slice preparation.
On the day of experiment, medium was removed, the brain slices rinsed and incubated in 0.1% FBS-containing medium for 4 hours at 36° C. in 5% CO2. Brain slices were then cultured with 100 nM Ab42 and/or 0.1, 1 nM compound C0105 or compound C0114 in fresh 0.1% FBS-containing medium for 16 hours. […]
as §1

[3] = biological target: FLNA interactions with CXCR4, CD4 and CCR5 (Homo sapiens, UniProt P21333); assay: FLNA interactions with CXCR4, CD4 and CCR5 in lymphocytes (western blot); conditions: 1 nM; lymphocytes of Ab42-treated young control subject and of AD patient
Chain of FLNA interactions with CXCR4, CD4 and CCR5 (P21333 2-2647 limits assumed): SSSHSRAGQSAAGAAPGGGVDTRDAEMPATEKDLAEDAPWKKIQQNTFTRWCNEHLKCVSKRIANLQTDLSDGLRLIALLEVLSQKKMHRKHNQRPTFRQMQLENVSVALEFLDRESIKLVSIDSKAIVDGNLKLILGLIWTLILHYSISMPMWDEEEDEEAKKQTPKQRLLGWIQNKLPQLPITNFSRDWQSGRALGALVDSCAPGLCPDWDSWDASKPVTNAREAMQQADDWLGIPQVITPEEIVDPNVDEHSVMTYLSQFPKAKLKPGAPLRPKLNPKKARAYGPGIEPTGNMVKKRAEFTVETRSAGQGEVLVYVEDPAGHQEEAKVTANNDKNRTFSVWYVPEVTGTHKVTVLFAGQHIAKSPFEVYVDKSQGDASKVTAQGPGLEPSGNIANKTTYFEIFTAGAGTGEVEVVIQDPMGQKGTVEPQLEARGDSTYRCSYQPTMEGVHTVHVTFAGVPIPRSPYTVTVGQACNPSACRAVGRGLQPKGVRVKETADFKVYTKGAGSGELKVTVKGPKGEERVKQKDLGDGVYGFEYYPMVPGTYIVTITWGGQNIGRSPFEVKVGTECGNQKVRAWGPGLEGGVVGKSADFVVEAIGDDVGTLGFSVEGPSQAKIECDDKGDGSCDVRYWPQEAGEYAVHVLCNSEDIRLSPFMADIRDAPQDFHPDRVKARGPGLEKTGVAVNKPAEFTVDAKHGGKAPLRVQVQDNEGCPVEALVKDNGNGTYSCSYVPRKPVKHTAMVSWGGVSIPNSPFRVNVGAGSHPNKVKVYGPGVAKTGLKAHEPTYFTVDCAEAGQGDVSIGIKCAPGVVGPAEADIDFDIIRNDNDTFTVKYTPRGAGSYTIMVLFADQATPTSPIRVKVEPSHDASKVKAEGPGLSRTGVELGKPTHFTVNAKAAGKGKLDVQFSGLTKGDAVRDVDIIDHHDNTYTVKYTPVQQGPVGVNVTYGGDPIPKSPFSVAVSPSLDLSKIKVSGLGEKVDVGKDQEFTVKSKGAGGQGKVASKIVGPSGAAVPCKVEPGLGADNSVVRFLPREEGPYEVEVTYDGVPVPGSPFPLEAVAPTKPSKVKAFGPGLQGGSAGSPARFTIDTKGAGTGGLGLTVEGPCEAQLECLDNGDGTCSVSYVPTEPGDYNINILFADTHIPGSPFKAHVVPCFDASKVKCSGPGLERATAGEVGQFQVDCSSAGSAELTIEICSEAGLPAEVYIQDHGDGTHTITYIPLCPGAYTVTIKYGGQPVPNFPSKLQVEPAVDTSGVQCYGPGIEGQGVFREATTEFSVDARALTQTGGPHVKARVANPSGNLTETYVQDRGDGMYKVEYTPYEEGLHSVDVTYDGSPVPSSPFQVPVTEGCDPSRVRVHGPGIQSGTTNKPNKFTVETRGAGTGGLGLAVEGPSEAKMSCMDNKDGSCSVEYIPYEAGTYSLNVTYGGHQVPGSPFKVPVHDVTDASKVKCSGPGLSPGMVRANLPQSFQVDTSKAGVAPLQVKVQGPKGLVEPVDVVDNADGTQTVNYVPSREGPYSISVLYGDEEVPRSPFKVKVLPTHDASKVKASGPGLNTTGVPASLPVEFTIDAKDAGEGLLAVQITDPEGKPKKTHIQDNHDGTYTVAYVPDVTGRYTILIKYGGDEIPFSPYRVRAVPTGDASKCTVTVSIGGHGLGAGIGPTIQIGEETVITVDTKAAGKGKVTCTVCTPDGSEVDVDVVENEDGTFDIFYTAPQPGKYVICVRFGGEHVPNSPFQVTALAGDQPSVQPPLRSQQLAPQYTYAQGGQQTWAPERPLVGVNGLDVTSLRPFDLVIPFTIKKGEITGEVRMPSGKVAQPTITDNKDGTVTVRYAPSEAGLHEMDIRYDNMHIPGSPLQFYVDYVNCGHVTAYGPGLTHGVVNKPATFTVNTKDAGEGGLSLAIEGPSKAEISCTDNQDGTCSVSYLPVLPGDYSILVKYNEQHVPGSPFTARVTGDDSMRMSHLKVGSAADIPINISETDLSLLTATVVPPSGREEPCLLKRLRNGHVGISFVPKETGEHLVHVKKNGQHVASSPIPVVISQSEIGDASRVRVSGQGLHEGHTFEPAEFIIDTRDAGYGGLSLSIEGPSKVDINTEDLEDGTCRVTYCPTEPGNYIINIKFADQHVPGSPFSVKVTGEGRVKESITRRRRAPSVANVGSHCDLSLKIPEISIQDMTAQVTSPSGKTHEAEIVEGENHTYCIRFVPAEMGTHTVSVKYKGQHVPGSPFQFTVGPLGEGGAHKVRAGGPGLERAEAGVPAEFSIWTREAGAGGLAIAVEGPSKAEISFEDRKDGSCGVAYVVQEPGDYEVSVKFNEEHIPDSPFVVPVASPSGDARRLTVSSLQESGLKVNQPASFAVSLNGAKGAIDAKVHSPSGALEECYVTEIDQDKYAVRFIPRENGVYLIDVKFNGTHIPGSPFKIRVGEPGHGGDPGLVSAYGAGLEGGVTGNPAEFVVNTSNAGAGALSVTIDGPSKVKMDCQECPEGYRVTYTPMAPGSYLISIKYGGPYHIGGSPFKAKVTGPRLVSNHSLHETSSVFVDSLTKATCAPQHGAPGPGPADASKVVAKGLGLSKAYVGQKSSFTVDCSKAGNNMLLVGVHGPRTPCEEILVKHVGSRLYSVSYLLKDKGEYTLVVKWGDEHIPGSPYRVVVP

CN1CCC2(CC1)NCC(=O)N2Cc1ccccc1 [Compound C0105M]
Inhibition of LTA-SA- or PGN-SA-enhanced tau phosphorylation (tau [1]): ≤ 25% | Ab42-induced tau phosphorylation (in words) (tau [1]; 0.1 micromolar Ab42): statistically significant reduction | Phosphorylation of tau at all three phosphorylation sites (tau [2]): dramatically reduces phosphorylation of tau | FLNA linkages with CXCR4, CD4 and CCR5 (in words) [3]: reduced these linkages
